Measurements published in ChEMBL document CHEMBL4390707, “Synthesis and comparison of substituted 1,2,3-dithiazole and 1,2,3-thiaselenazole as inhibitors of the feline immunodeficiency virus (FIV) nucleocapsid protein as a model for HIV infection” (Bioorg Med Chem Lett, 2019).
Each block holds one molecule with its values, some of them ahead of it.

How the values were obtained:
[1] = Cytotoxicity against cat CRFK cells measured after 24 hrs by MTT assay; type: cell-based, Felis catus
[2] = Inhibition of nucleocapsin protein in FIV infected in cat FL-4 cells assessed as reduction in viral RNA replication measured after 7 days by qRT-PCR analysis; type: cell-based; conditions: Feline immunodeficiency virus, FL-4, 168 h
[3] = Therapeutic index, ratio of CC50 for cat FL-4 cells to EC50 for inhibition of nucleocapsin protein in FIV infected in cat FL-4 cells; type: toxicity, cell-based; conditions: FL-4 cells (FIV infected for EC50), read-out: Ratio CC50/EC50
[4] = Cytotoxicity against cat FL-4 cells measured after 7 days by MTT assay; type: cell-based, Felis catus

Structure (SMILES): N#Cc1c2n[se]sc-2c(Cl)c1Cl
CC50 at 24 h [1]: > 100 µM
EC50 [2]: 3.8 µM
selectivity ratio [3]: 4.7
CC50 at 168 h [4]: 18 µM

Structure (SMILES): c1ccc(-c2c3s[se]nc-3c3ccccc23)cc1
CC50 at 24 h [1]: 56 µM
EC50 [2]: 0.26 µM
selectivity ratio [3]: 194
CC50 at 168 h [4]: 50 µM

Structure (SMILES): Clc1c2s[se]nc-2c2ccccc12
CC50 at 24 h [1]: 98 µM
EC50 [2]: 1.2 µM
selectivity ratio [3]: 4.6
CC50 at 168 h [4]: 5.7 µM

Structure (SMILES): CCOC(=O)c1c2n[se]sc-2c(Cl)c1Cl
CC50 at 24 h [1]: > 100 µM
EC50 [2]: 0.082 µM
selectivity ratio [3]: 61.9
CC50 at 168 h [4]: 5.1 µM

Structure (SMILES): ClC1=C2S[Se]N=C2c2ccccc2C(Cl)=C1Cl
CC50 at 24 h [1]: > 100 µM
EC50 [2]: 0.25 µM
selectivity ratio [3]: 3.3
CC50 at 168 h [4]: 0.83 µM

Structure (SMILES): c1ccc2c(c1)N=C1S[Se]N=C1O2
CC50 at 24 h [1]: > 100 µM
EC50 [2]: 0.24 µM
selectivity ratio [3]: 24
CC50 at 168 h [4]: 5.8 µM

Structure (SMILES): Clc1c2n[se]sc-2c(Cl)c1Cl
CC50 at 24 h [1]: 62 µM
EC50 [2]: 1.2 µM
selectivity ratio [3]: 5.4
CC50 at 168 h [4]: 6.5 µM

Continued, in another order:

EC50 [2]: 25.7 µM
Structure (SMILES): c1ccc(-c2c3ssnc-3c3ccccc23)cc1
CC50 at 24 h [1]: > 100 µM
selectivity ratio [3]: > 4
CC50 at 168 h [4]: > 100 µM

EC50 [2]: 2.7 µM
Structure (SMILES): Cc1cn([C@H]2C[C@H](N=[N+]=[N-])[C@@H](CO)O2)c(=O)[nH]c1=O [ZIDOVUDINE]
CC50 at 24 h [1]: > 100 µM
selectivity ratio [3]: > 37
CC50 at 168 h [4]: > 100 µM

EC50 [2]: 1.5 µM
Structure (SMILES): N#Cc1c2nssc-2c(Cl)c1Cl
CC50 at 24 h [1]: > 100 µM
selectivity ratio [3]: 26.8
CC50 at 168 h [4]: 39 µM

EC50 [2]: 1.6 µM
Structure (SMILES): Clc1c2nssc-2c(Cl)c1Cl
CC50 at 24 h [1]: 68 µM
selectivity ratio [3]: 3.8
CC50 at 168 h [4]: 6.1 µM

EC50 [2]: 3 µM
Structure (SMILES): ClC1=C2SSN=C2c2ccccc2C(Cl)=C1Cl
CC50 at 24 h [1]: > 100 µM
selectivity ratio [3]: 3.1
CC50 at 168 h [4]: 9.3 µM

EC50 [2]: 0.31 µM
Structure (SMILES): CCOC(=O)c1c2nssc-2c(Cl)c1Cl
CC50 at 24 h [1]: > 100 µM
selectivity ratio [3]: 11.4
CC50 at 168 h [4]: 3.5 µM

EC50 [2]: 1.4 µM
Structure (SMILES): Clc1c2ssnc-2c2ccccc12
CC50 at 24 h [1]: > 100 µM
selectivity ratio [3]: 36.3
CC50 at 168 h [4]: 49 µM

EC50 [2]: 4 µM
Structure (SMILES): c1ccc2c(c1)N=C1SSN=C1O2
CC50 at 24 h [1]: > 100 µM
selectivity ratio [3]: 14
CC50 at 168 h [4]: 57 µM
